Drawing on ChEMBL document CHEMBL1150053, “Scalarane-type bishomosester terpenes from the sponge Phyllospongia foliascens” (J Nat Prod, 1992), this text covers IC50 for two compounds.

Each structure is given as a SMILES string. ≈ marks a conversion by molar mass, not a printed value.

The subject of the test is KB. Put plainly: Cytotoxicity against human KB cells. Format: functional, cell-based.

The IC50 is the point on the concentration scale where inhibition reaches its midpoint. Lower therefore signals greater potency in that assay. Compound `CCC(O)CC(=O)O[C@@H]1C[C@@H]2[C@@]3(C)CCC[C@](C)(CC)[C@@H]3CC[C@@]2(C)[C@@H]2C[C@@H](O)C3=C(C(=O)O[C@@H]3C)[C@@]12C` (some centres not stated) [PHYLLACTONE A] came in with an IC50 of 20 µg/mL (≈ 37.7 µM).

Turning to `CCC(O)CC(=O)O[C@@H]1C[C@@H]2[C@@]3(C)CCC[C@](C)(CC)[C@@H]3CC[C@@]2(C)[C@@H]2C[C@@H](O)C3=C(C(=O)O[C@H]3C)[C@@]12C` (some centres not stated) [PHYLLACTONE B], half-maximal inhibition (IC50) required 20 µg/mL (≈ 37.7 µM).
